Results reported in ChEMBL document CHEMBL2074237, “Biological activity of persimmon (Diospyros kaki) peel extracts” (Phytother Res, 2003).

Target: ATP-dependent translocase ABCB1 (Homo sapiens, UniProt P08183)
Experiment: TP_TRANSPORTER: inhibition of Rhodamine 123 efflux (R123: 5.2 micro;M) in MDR1 transfected L-5178 cells
Assay type: functional, cell-based
Settings: mouse

Chain of ATP-dependent translocase ABCB1 (P08183 whole entry): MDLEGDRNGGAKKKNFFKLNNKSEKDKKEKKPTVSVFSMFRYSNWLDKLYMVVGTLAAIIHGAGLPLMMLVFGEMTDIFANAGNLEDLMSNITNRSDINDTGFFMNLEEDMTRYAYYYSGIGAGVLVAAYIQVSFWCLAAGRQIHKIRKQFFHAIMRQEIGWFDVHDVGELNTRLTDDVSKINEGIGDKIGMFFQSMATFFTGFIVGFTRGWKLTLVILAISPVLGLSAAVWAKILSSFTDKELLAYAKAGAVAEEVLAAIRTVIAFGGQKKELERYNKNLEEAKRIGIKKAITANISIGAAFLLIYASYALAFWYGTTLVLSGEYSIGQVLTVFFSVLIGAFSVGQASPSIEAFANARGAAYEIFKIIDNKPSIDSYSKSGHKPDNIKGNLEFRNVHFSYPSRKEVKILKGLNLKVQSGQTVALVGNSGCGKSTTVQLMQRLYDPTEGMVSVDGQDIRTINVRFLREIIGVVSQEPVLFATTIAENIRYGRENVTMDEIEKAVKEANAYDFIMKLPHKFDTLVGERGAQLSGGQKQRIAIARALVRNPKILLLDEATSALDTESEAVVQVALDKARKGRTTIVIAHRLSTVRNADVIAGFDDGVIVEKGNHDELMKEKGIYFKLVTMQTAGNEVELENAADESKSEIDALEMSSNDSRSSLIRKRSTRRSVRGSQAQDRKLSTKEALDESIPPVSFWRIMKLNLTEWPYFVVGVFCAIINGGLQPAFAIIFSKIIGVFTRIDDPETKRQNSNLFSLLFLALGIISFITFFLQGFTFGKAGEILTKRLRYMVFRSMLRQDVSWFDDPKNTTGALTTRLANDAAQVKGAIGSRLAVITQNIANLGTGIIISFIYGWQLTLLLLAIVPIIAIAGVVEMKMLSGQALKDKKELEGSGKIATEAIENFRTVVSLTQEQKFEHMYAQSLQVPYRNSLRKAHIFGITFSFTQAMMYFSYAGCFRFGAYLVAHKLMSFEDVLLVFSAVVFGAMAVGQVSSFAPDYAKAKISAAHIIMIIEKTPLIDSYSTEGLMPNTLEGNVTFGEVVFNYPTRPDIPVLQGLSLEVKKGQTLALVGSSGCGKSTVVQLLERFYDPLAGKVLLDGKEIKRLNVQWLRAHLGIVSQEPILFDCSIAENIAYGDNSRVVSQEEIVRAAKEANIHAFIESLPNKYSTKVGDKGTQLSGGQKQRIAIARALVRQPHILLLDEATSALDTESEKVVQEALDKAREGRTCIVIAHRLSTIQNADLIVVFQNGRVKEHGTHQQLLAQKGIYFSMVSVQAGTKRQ

Activity: inhibitor [+]
Sequence: PERSIMMON PEEL EXTRACTS
